Experimental data as given in article PMC8480901 (PLoS ONE, 2021).
Values joined by “and” are separate entries in the source; they are usually repeats but may differ in a detail not shown here. Identical values can stand only once. Like-named read-outs stand apart in the source and are kept apart here.

How the values were obtained:
[1] = test system: IL-8–activated human neutrophils; test: Chemotaxis of IL-8–activated human neutrophils (transwell, CellTiter Glo); format: cell-based; conditions: for Neutrophilic chemotaxis, RLU, Mean / Neutrophilic chemotaxis: % reduction / Neutrophilic chemotaxis, RLU, single replicates: IL-8; for Neutrophilic chemotaxis, RLU, single replicates: listed as Azi
Description: Buffy coat (blood sample fraction comprising white blood cells and platelets) from whole blood was obtained from a healthy adult volunteer at the Croatian Institute of Transfusion Medicine (CITM; Zagreb, Croatia). The CITM ethics committee approved the blood collection process, and the volunteer provided written informed consent prior to blood collection. Neutrophils were isolated from the buffy coat, an aliquot of which was used for cell counting via hematologic analyzer (X500i; Sysmex). […] The diluted buffy coat was drawn into sterile 50-mL syringes and incubated for 30 minutes at RT. Following incubation, the upper layer of leukocyte-rich plasma (35 mL) was decanted into a new sterile 50-mL conical centrifuge tube, carefully layered onto 15 mL of Lymphoprep (Axis-Shield Diagnostics, Ltd., Dundee, UK) and centrifuged at 400×g (brake turned off) for 35 minutes at RT. The supernatant and mononuclear ring were discarded, and the pellet was resuspended in 10 mL of cold sterile MilliQ water. […] Resuspended neutrophils were counted via Sysmex X500i hematologic analyzer.
All test compounds were reconstituted in DMSO (Sigma-Aldrich Chemie GmbH) to 100-mM stock concentrations, taking into consideration and correcting for salt and purity. A 30-mM stock solution of reference compound Sch527123 (MedChemExpress, Monmouth Junction, NJ, USA) was diluted to 10 mM with DMSO.
DMSO was used as vehicle. […] The reference compound was tested at concentrations of 0.003, 0.01, 0.03, 0.1, 0.3, 1, 3, and 10 μM. All compounds were tested in triplicate, and the final DMSO concentration was 0.1% per well.
Test and reference compound working solutions were then added (20 μL/well) for a 10-fold dilution to final testing concentrations. Compounds and cells were mixed by gentle pipetting, and the plate was pre-incubated for 30 minutes at RT with gentle mixing by pipetting.
Negative control wells received 180 μL of migration medium alone. To all wells, 20 μL of compound working solutions or DMSO vehicle was added. Once pre-incubation of cells with compounds was complete, the transwell inserts were carefully placed on the receiver plate, with caution to avoid air bubble formation, which could prevent cell migration. To the upper wells, 75 μL of cell suspension (375,000 cells/well) was added, taking care not to tear the membrane with pipette tips.
After incubation, the number of cells that migrated to the lower wells was quantified by removing the Transwell insert and adding 200 μL of CellTiter Glo reagent (CellTiter-Glo Luminescent Cell Viability Assay, Promega, Madison, WI, USA) to each lower well to quantify the amount of adenosine triphosphate (ATP) present, signaling the presence of metabolically active cells. The plate was incubated for 10 minutes in the dark at RT, followed by transferring 150 μL of solution into wells of a white 96-well plate (Lumitrac 200; Greiner Bio-One International GmbH, Kremsmunster, Austria).
(§1) For the chemotaxis and cytotoxicity evaluations, average relative light unit values were calculated from all untreated vehicle samples and, for each sample, percentage of vehicle value was calculated. The tested compound was considered cytotoxic if reduction from untreated vehicle was ≥20%.

[2] = Pharmacokinetics in plasma and epithelial lining fluid of mice after a single SC dose; format: in vivo, BALB/c mice; conditions: mice; for AUC(0-t): read-out: AUC0-24h, mean±SEM; for Cmax: read-out: Cmax, mean±SEM
Protocol: Pharmacokinetic parameters were evaluated as previously described. […] Plasma samples were analyzed by liquid chromatography with […] mass spectrometry (Q Exactive Plus; Thermo Fisher Scientific).
Area under the curve (AUC) values were determined using the linear trapezoidal method.

human PBMCs = test: Cytotoxicity in human PBMCs (adenylate kinase release, ToxiLight); format: cell-based; conditions: PBMCs; ≤100 μM
Protocol: The effect of t est compounds on cell viabilit y of J 774.2 macrophages and human PBMCs […]
was determined b y comp aring th e aden yl ate kinas e signal obtain ed in the p resence of diff er ent concentrations of compounds with those obtained in DMSO (vehicle) control. Signals were […]
divided,and the results were ex pressed as fold-change versus v ehicle con trol .

human neutrophils = test: Cytotoxicity in human neutrophils (CellTiter Glo); format: cell-based; conditions: ≤100 μM, cytotoxic if reduction from vehicle ≥20%
Protocol: as §1

[3] = test system: LPS-induced acute lung injury; conditions: pretreatment in LPS-induced acute lung injury models; cited from earlier work
[4] = female, BALB/c, mouse, epithelial lining fluid (ELF), ELF, single 35 mg/kg SC
[5] = female, BALB/c, mouse, plasma, single 35 mg/kg SC

CC[C@H]1OC(=O)[C@H](C)[C@@H](O[C@H]2C[C@@](C)(OC)[C@@H](O)[C@H](C)O2)[C@H](C)[C@@H](O[C@@H]2O[C@H](C)C[C@H](N(C)C)[C@H]2O)[C@](C)(O)C[C@@H](C)CN(C)[C@H](C)[C@@H](O)[C@]1(C)O [Azithromycin]
IL-8–induced chemotaxis of human neutrophils ([1]; 0.03 to 30 μM): no effect | Neutrophilic chemotaxis, RLU, Mean ([1]; 0.03 µM): 121773 RLU | Neutrophilic chemotaxis: % reduction ([1]; 0.03 µM): 10% | Neutrophilic chemotaxis, RLU, single replicates ([1]; 0.03 µM): 113920 RLU and 126240 RLU | Neutrophilic chemotaxis, RLU, Mean ([1]; 0.1 µM): 122140 RLU | Neutrophilic chemotaxis: % reduction ([1]; 0.1 µM): 9% | Neutrophilic chemotaxis, RLU, single replicates ([1]; 0.1 µM): 121960 RLU and 122320 RLU | Neutrophilic chemotaxis, RLU, Mean ([1]; 0.3 µM): 131533 RLU | Neutrophilic chemotaxis, RLU, single replicates ([1]; 0.3 µM): 126760 RLU and 132240 RLU and 135600 RLU | Neutrophilic chemotaxis, RLU, Mean ([1]; 1 µM): 117320 RLU | Neutrophilic chemotaxis: % reduction ([1]; 1 µM): 13% | Neutrophilic chemotaxis, RLU, single replicates ([1]; 1 µM): 120320 RLU and 118720 RLU and 112920 RLU | Neutrophilic chemotaxis, RLU, Mean ([1]; 3 µM): 121787 RLU | Neutrophilic chemotaxis: % reduction ([1]; 3 µM): 9.51% | Neutrophilic chemotaxis, RLU, single replicates ([1]; 3 µM): 127280 RLU and 119280 RLU and 118800 RLU | Neutrophilic chemotaxis, RLU, Mean ([1]; 10 µM): 120227 RLU | Neutrophilic chemotaxis: % reduction ([1]; 10 µM): 11% | Neutrophilic chemotaxis, RLU, single replicates ([1]; 10 µM): 119960 RLU and 123240 RLU and 117480 RLU | Neutrophilic chemotaxis, RLU, Mean ([1]; 30 µM): 136440 RLU | Neutrophilic chemotaxis: % reduction ([1]; 30 µM): -3% | Neutrophilic chemotaxis, RLU, single replicates ([1]; 30 µM): 143280 RLU and 148320 RLU and 117720 RLU | Neutrophilic chemotaxis, RLU, Mean ([1]; 100 µM): 142040 RLU | Neutrophilic chemotaxis: % reduction ([1]; 100 µM): -8% | Neutrophilic chemotaxis, RLU, single replicates ([1]; 100 µM): 140160 RLU and 151960 RLU and 134000 RLU | AUC0-24h/Dose, mean ([2]; ELF, single 35 mg/kg SC): 0.76 (μg∙h/mL)/(mg/kg) | Kp ([2]; female, BALB/c, mouse, epithelial lining fluid (ELF) / plasma, single 35 mg/kg SC, read-out: AUC ratio for ELF to plasma): ~2 | Tmax [2, 4]: 15 min | AUC(0-t) [2, 4]: 26700 ± 5780 ng·h/mL | Cmax [2, 4]: 2350 ± 1450 ng/mL | Tmax [2, 5]: 4.8 min | AUC(0-t) [2, 5]: 11600 ± 1370 ng·h/mL | Cmax [2, 5]: 2330 ± 830 ng/mL | distribution from plasma to ELF (penetration into the lung compartment) ([2]; single SC dose 35 mg/kg): rapid penetration | AUC0-24h/Dose, mean ([2]; plasma, single 35 mg/kg SC): 0.33 (μg∙h/mL)/(mg/kg) | cytotoxic effects (human PBMCs): no cytotoxic effects | cytotoxic effects (human neutrophils): no cytotoxic effects | neutrophil recruitment [3]: significantly reduced
